The subject of one data set is MMP-9. Kind of data set: Gelatin zymography of mouse spinal cord for MMP-9 rebound effect. It is filed as in vivo, mice. The source says:
There were three groups in the study comprising six mice for each group (Naive, control and compound 10 groups).

Another data set concerns FVB male mice. Nature of the data set: Spinal nerve ligation (SNL) mouse model of neuropathic pain, intrathecal administration, von Frey tactile allodynia test. The class given is in vivo. The conditions noted are these: for 50% paw withdrawal threshold, Mean, Day 0 Postoperative Baseline: group baseline after SNL injury, before first injection; for 50% paw withdrawal threshold, Mean, Day 0 Postoperative Baseline / 50% paw withdrawal threshold, Mean, Day(-2) Pre-operative Baseline: von Frey; for 50% paw withdrawal threshold, Mean, Day(-2) Pre-operative Baseline: group baseline prior to SNL injury and before any treatment; for 50% paw withdrawal threshold, Mean, Day 5 / 50% paw withdrawal threshold, Mean, Day 7 / 50% paw withdrawal threshold, Mean, Day 1: i.t. 10 µl/mouse daily injections day 1-6; for 50% paw withdrawal threshold, Mean, Day 1: testing 2hr after first i.t. injection. The source says:
To measure the neuropathic pain inhibiting affects of the MMP inhibitors of the present invention, the spinal nerve ligation (SNL) mouse model was run on a select number of compounds. This model which began with the work of Bennet and coworkers (Bennet, G.J. et al. Pain, 33, (1988), 87-107) and was optimized by Kim and Chung (Kim, S.H.; Chung, J.M. Pain, 50, (1992), 355-363) entails first, under magnification, the removal of one-third of the transverse process and then identifying and then dissecting free the L5 spinal nerve from the adjacent L4 spinal nerve in the mouse. The L5 spinal nerve is then tightly ligated using 6.0 silk suture. The nerve injury leads to hyperalgesia which manifests itself by enhanced responses to mechanical, heat and/or cooling stimuli. In this case, mechanical hyperalgesia is tested via Von Frey monofilaments in which filaments of varying thicknesses and bending force are individually applied to the plantar surface of the foot of the mouse. The threshold force necessary for paw withdrawal decreases dramatically after the nerve surgery. Potent pain inhibitors will reverse this affect resulting in greater force needing to be applied to cause the rodent paw to withdrawal.
Following preoperative baseline (Day -2) paw threshold measurement, FVB male mice were subjected to SNL injury (Day -1). The next day (Day 0) after SNL surgery, the animals were tested for post-operative baseline threshold measurements for mechanical allodynia; and the animals were then randomly assigned to one of 3 treatment groups (see Table 3). Over the course of the study, paw withdrawal threshold of these animals was measured in response to mechanical stimulation using the von Frey Monofilament Test.
To avoid systemic effects of the MMP inhibitors, the MMP inhibitors of the present invention were delivered into the cerebral spinal fluid (CSF) space around lumbosacral spinal cord via intrathecal (i.t.) administration, with the idea of targeting MMPs in the DRG, spinal cord, and spinal CSF. Intrathecal MMP inhibitor administration could then target not only spinal cord cells but also DRG cells. Each intrathecal (i.t.) injection was carried out according to the technique of Hylden and Wilcox (Hylden JL, Wilcox GL. Eur. J Pharmacol., 67, (1980), 313-6) 5.2 mg of each of the MMP inhibitors were first dissolved in 140 microliters of DMSO and then put into 1260 microliters of 0.5% hydroxypropyl cellulose (HPC) in water to make a fine suspension composed of compound in 10%DMSO-0.5% hydroxypropyl cellulose. 10 microliters of the mixture was injected into the intrathecal space of male FVB mice (weighing 22-25 grams each and obtained from the Jackson Laboratories, Bar Harbor, Me), by lumbar puncture in a volume of 10 µl/mouse using a Hamilton microsyringe via a 30 gauge needle inserted between lumbar vertebrae 5 and 6. In brief, each animal was held firmly by the pelvic girdle in one hand, while the needle was inserted into the tissue on the right side of the L5 or L6 spinous process. The needle was moved forward and slipped into the groove between the spinous process and transverse process and gently moved forward to the intervertebral space at ∼10° angle. As the needle was inserted (∼0.5 cm) within the vertebral column a tail flick was evident, and the solution was then injected. Table 3. Animal i.t. Treatment Groups & Compounds Tested
Tactile Allodynia Test. Mechanical allodynia was measured using the calibrated von Frey filaments (Semmes-Weinstein monofilaments; Stoelting, Wood Dale, IL, U.S.A.). The plantar surface of the left injured paw of each animal was tested as described by Chaplan et al. (Journal of Neuroscience Methods, 53, (1994), 55-63). […]

In the next data set the test system is MMP-2. Nature of the data set: Gelatin zymography of mouse spinal cord for MMP-2 rebound effect. It is filed as in vivo, mice.
For data set [1], the target named is Catalytic domain of MMP-9 (human recombinant) (Homo sapiens, UniProt P14780). Nature of the data set: biochemical. To be noted: read-out: Average Percent Inhibition (MMP-9).
Procedure: A concentration of MMP inhibitor of the present invention was tested (1 microMolar) in duplicate runs. […] The mixture of enzyme and compound in assay buffer was then thoroughly mixed and incubated for 60 minutes at 37 °C. Upon the completion of incubation, the assay was started by the addition of 10 µM of fluorescent substrate DNP-Pro-Cha-Gly-Cys(Me)-His-Ala-Lys(N-Me-Abz)-NH2 [Cha = β -cyclohexylalanyl; Abz = 2-aminobenzoyl (anthraniloyl)] (Kd - 7 microMolar).
Data set [2] is described as follows: In-vitro microsomal stability in human microsomes. The conditions noted are these: 1 µM compound, human microsomes 0.3 mg/mL. The class given is in vitro ADME. The procedure:
Human and mouse microsomal stability was determined for select compounds following the method of Houston (Houston, JB; Biochem. Pharmacol. 47, (1994),1469).
1 µM concentration of compound and seperate human and mouse microsomes (0.3 mg/mL, BD bioscience) were used in the in-vitro assay. To ensure proper energy supply for microsomal degradation of compound, an energy regenerating system comprised of 100 mM potassium phosphate, 2mM NADPH, 3mM MgCl2, pH = 7.4. and the microsomal protein is added to each sample and the resulting suspension is then incubated in duplicate for 60 min at 37° C. in a rotary shaker. A control is run for each test agent in duplicate omitting NADPH to detect NADPH-free degradation. At T=0 and T= 60 min., an aliquot is removed from each experimental and control reaction and then mixed with an equal volume of ice-cold Stop Solution (consisting of 0.3% acetic acid in acetonitrile containing haloperidol and diclofenac as internal standards). […] The samples are then centrifuged to remove precipitated protein, and the supernatants are then analyzed by LC-MS/MS to determine the percentage of compound remaining. […] After separation on a C18 reverse phase HPLC column (Agilent, Waters, or equivalent) using an acetonitrile-water gradient system, peaks were analyzed by mass spectrometry (MS) using ESI ionization in MRM mode.

[3] abbreviates: 0.5 and 2 hours after naloxone precipitated withdrawal and cessation of compound administration, versus control.
Setting [4] is: after discontinuation of compound in naloxone precipitated withdrawal model.

Sequence of Catalytic domain of MMP-9 (human recombinant) (P14780 107-444 limits assumed): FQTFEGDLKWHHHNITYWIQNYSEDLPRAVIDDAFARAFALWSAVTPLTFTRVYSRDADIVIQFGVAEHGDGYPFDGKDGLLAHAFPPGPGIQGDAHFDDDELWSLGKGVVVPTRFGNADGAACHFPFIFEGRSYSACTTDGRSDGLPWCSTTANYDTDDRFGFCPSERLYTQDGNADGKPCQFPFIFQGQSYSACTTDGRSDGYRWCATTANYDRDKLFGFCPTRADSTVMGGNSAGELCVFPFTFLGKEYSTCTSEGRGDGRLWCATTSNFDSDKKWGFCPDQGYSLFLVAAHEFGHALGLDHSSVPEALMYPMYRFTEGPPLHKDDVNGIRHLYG

Take `[2H]C([2H])([2H])c1ccc(C#Cc2ccc(S(=O)(=O)N[C@H](Cc3c[nH]c4ccccc34)C(=O)O)s2)cc1` [Compound 10, (R)-3-(1H-Indol-3-yl)-2-[5-(4-trideuteromethyl-phenylethynyl)-thiophene-2-sulfonylamino]-propionic acid-(D3, 98%)]: the “MMP-9 levels in spinal cord” value in the data set on MMP-9 (setting [3]) is reported as “stayed the same or were slightly lower than the control”. Further, the “MMP-9 rebound effect due to discontinuation” value in the data set on MMP-9 (setting [4]) is recorded as “No evidence of a MMP-2 and/or MMP-9 rebound effect”. In the data set on FVB male mice, the “50% paw withdrawal threshold, Mean, Day 0 Postoperative Baseline” value is listed as 0.077 g; the “50% paw withdrawal threshold, Mean, Day(-2) Pre-operative Baseline” value is reported as 1.268 g; the “50% paw withdrawal threshold, Mean, Day 5” value stood at 0.320 g; the “50% paw withdrawal threshold, Mean, Day 7” value worked out at 1.024 g. The “50% paw withdrawal threshold, Mean, Day 1” value in the data set on FVB male mice is reported as 0.321 g. Also, the reversal of allodynia result in the data set with FVB male mice (i.t. administration, as compared to vehicle and compound #5) is “almost complete reversal of allodynia”. Besides, the “MMP-2 levels in spinal cord” value in the data set with MMP-2 (setting [3]) was “stayed the same or were slightly lower than the control”. Moreover, the “MMP-2 rebound effect due to discontinuation” value in the data set on MMP-2 (setting [4]) was “No evidence of a MMP-2 and/or MMP-9 rebound effect”.
Regarding `Cc1ccc(C#Cc2ccc(S(=O)(=O)N[C@H](Cc3c[nH]c4ccccc34)C(=O)O)s2)cc1` [Compound 5, (R)-3-(1H-Indol-3-yl)-2-(5-p-tolylethynyl-thiophene-2-sulfonylamino)-propionic acid], in data set [1], the inhibition – broadly, the drop in the measured response relative to a control, in per cent – at 1 µM worked out at 82%. Also, in the data set on FVB male mice, the “50% paw withdrawal threshold, Mean, Day 0 Postoperative Baseline” value amounted to 0.050 g; the “50% paw withdrawal threshold, Mean, Day(-2) Pre-operative Baseline” value came out at 1.265 g; the “50% paw withdrawal threshold, Mean, Day 5” value was found to be 0.079 g; the “50% paw withdrawal threshold, Mean, Day 7” value was found to be 0.190 g. Besides, in the data set on FVB male mice, the “50% paw withdrawal threshold, Mean, Day 1” value worked out at 0.098 g. In data set [2] (60 min at 37° C), the “Mean Remaining Parent with NADPH (%)” value turned out to be 86%. Further, in data set [2] (control omitting NADPH, at T = 60 minutes), the “Mean Remaining Parent without NADPH (%)” value came to 89%.

(Values after EP2681209B1, “COMPOUNDS AND METHODS FOR THE TREATMENT OF PAIN AND OTHER DISORDERS” (Aquilus Pharmaceuticals, Inc, priority 2011, dated 2012).)
